Assay results published in patent US6251919A, “Heterocyclic substituted aniline calcium channel blockers” (Warner-Lambert, priority 1999, dated 2001).
Where two headings read alike, the source gives them in different places. Bridges are numbered along the chain shown (N, C = ends). Where no end group is shown, it is not given here.

How the values were obtained:
male Swiss-Webster mice = assay: Anti-Writhing Test in Mice (AW), acetic acid; format: in vivo
Text: Anti-Writhing Test in Mice (AW) Test Protocol
The purpose of this test is to evaluate drugs for analgesic-like activity. The AW test determines the effect of drugs on the response to a presumed painful stimulus in mice and is used as a preliminary in vivo procedure for the identification of potential analgesic agents.
Known analgesics with low, moderate, or high efficacy in man allow mice to tolerate intra-peritoneal administration of dilute acetic acid as evidenced by lesser incidence of writhing movements. The AW test measures the nociceptive response to acetic acid in mice and provides an objective, reliable, and quantitative estimate of efficacy and potency of potential analgesic compounds. […]
Compounds are dissolved or suspended in physiological saline containing 2% Emulphor. […] Drug doses are expressed as the active moiety and are normally administered to mice (10, 30, and 100 mg/kg IP, SC, PO, or IM) in a volume of 10 mL/kg, 1 hour prior to testing; ICV doses (in μg/kg) are administered in a volume of 0.5 mL/kg, 5 minutes prior to testing. […]
Mice are treated with a dilute solution of acetic acid (0.6%, 10 mL/kg IP) which elicits writhing. […] Writhing movements (abdominal contractions, stretching of the torso and hind legs, and concave arching of the back) are counted for 5 minutes commencing 7 minutes after acetic acid administration. […]

[1] = target: T1, N-type Ca^2+ channel in IMR-32 cells (Homo sapiens, UniProt Q00975); assay: N-type Ca2+ channel blockade in IMR-32 cells (fluorescent Ca2+ indicator Indo-1); format: cell-based; conditions: 5 μM nitrendipine present; for inhibition at 1 µM: IMR-32, 1 μM; for inhibition at 10 µM: IMR-32, 10 μM
T1 construct: host or cells: IMR-32 (differentiated with dibutyryl cAMP and bromodeoxyuridine)
T1 sequence (Q00975 whole entry): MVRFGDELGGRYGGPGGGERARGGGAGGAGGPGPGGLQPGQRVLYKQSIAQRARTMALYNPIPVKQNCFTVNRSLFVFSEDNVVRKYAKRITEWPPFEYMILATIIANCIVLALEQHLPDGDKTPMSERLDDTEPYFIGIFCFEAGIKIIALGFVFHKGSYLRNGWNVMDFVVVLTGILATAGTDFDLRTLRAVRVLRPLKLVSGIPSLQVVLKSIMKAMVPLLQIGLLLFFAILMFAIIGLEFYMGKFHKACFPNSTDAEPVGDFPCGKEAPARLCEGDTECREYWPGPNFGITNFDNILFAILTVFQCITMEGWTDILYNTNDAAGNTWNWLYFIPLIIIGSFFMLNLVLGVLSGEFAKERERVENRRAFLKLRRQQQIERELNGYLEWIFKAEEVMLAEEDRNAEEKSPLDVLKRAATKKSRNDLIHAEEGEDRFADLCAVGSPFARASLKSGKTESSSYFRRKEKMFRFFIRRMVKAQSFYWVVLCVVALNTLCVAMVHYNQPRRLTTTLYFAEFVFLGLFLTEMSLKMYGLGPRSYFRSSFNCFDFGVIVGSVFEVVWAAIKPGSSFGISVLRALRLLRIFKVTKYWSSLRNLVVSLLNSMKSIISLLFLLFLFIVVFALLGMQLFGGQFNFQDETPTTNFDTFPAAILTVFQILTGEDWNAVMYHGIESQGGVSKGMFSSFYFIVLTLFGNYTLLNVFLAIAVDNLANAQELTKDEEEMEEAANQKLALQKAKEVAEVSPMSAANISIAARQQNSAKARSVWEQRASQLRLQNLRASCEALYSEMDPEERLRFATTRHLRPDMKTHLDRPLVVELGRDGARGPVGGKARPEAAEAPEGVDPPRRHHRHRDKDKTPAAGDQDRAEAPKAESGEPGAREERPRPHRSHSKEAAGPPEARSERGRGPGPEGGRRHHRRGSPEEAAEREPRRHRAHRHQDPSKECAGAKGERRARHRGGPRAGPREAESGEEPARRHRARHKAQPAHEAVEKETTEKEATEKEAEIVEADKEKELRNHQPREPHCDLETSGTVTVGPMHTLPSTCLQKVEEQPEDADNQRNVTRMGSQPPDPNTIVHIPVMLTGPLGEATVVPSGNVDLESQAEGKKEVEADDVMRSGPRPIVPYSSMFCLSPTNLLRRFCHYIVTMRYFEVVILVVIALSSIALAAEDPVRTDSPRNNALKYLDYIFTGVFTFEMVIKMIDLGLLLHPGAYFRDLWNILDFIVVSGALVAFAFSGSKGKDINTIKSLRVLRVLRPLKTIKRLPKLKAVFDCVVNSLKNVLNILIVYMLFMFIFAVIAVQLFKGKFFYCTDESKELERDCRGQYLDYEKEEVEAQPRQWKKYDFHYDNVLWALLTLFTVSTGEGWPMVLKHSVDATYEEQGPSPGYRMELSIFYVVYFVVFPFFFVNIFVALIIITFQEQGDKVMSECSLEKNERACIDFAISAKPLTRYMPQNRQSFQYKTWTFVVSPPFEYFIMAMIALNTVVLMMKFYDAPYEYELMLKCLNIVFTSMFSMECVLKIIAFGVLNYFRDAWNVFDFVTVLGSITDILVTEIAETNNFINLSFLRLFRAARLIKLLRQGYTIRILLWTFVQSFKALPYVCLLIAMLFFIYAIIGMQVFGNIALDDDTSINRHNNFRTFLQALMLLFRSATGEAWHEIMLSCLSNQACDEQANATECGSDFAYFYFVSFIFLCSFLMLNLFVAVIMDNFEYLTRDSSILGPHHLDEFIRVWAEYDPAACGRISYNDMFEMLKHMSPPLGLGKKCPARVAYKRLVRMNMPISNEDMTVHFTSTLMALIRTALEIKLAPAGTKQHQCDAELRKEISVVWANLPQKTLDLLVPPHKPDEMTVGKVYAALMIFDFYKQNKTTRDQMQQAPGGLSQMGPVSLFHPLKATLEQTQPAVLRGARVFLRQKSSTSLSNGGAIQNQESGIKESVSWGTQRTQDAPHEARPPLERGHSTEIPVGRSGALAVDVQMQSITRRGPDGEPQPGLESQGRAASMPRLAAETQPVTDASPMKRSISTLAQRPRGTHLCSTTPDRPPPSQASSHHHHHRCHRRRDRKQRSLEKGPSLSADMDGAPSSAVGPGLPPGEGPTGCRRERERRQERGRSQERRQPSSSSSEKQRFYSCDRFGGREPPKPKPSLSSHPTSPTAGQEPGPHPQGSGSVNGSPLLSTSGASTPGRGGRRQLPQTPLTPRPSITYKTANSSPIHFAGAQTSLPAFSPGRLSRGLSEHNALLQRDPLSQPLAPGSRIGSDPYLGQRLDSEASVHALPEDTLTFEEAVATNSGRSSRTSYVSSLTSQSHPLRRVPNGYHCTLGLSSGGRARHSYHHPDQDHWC

DBA/2 mice = assay: Audiogenic seizure (anticonvulsant) test in DBA/2 mice; format: in vivo; conditions: Mus musculus, intravenous, read-out: DBA/2 mice % Protection
Procedure: A compound of the present invention was dissolved in water using 10% (weight/volume) Emulphor (GAF Corp., Wayne, N.J.) surfactant. Substances were administered by intravenous injection into the retro-orbital venous sinus. All testing was performed fifteen minutes or forty-five minutes after drug injection. All the male mice, 3-4 weeks old were obtained from Jackson Laboratories Bar Harbour, Me. Immediately before anticonvulsant testing, mice were placed upon a wire mesh, four inches square suspended from a steel rod. The square was slowly inserted through 180 degree and mice observed for thirty seconds. Any mouse falling from the wire mesh was scored as ataxia.
Mice were placed into an enclosed acrylic plastic chamber (21 cm height, approximately 30 cm diameter) with a high-frequency speaker (4 cm diameter) in the center of the top lid. An audio signal generator (Protek model B-810) was used to produe a continuous sinusoidal tone that was swept linearly in frequency between 8 kHz and 16 kHz once each 10 msec. The average sound pressure level (SPL) during stimulation was approximately 100 dB at the floor of the chamber. Mice were placed within the chamber and allowed to acclimatize for one minute. DBA/2 mice in the vehicle-treated group responded to the sound stimulus (applied until tonic extension occurred, or for a maximum of sixty seconds) with a characteristic seizure sequence consisting of wild running followed by clonic seizures and later by tonic extension, and finally by respiratory arrest and death in 80% or more of the mice. In vehicle-treated mice, the entire sequence of seizures to respiratory arrest lasts approximately 15-20 seconds.
The incidence of all the seizure phases in the drug-treated and vehicle-treated mice was recorded, and the occurrence of tonic seizures were used for calculating anticonvulsant ED50 values by probit analysis. Mice were used only once for testing at each time and dose point.

[2] = test system: models of ischemia and pain; conditions: Bowersox et al. 1994; cited from earlier work
N-type calcium channel = conditions: Bowersox et al. 1994; cited from earlier work

Row | Molecule | inhibition at 1 µM [1] | inhibition at 10 µM [1] | responders at 10 mg/kg (DBA/2 mice) | further results
1 | CC(C)=CCN(c1ccc(OCc2ccccc2)cc1)C1CCN(C(=O)[C@@H](O)CC(C)C)CC1 [Example 44, (S)-1-{4-[(4-Benzyloxy-phenyl)-(3-methyl-but-2-enyl)-amino]-piperidin-1-yl}-2-hydroxy-4-methyl-pentan-1-one] | 64% | 107% | – | Anti-Writhing % Protection (male Swiss-Webster mice; 10 mg/kg): 30%; Anti-Writhing % Protection (male Swiss-Webster mice; 30 mg/kg): 100%; responders at 30 mg/kg (DBA/2 mice; 30 mg/kg): 100%
2 | CC(C)=CCN(c1ccc(OCc2ccccc2)cc1)C1CCN(Cc2ccc[nH]2)CC1 [Example 7, (4-Benzyloxy-phenyl)-(3-methyl-but-2-enyl)-[1-(1H-pyrrol-2-ylmethyl)-piperidin-4-yl]-amine] | – | – | 100% | responders at 30 mg/kg (DBA/2 mice; 30 mg/kg): 100%
3 | CC(C)=CCN(c1ccc(OCc2ccccc2)cc1)C1CCN(Cc2ccccc2)CC1 [Example 19, (4-Benzyloxy-phenyl)-(1-benzyl-piperidin4-yl)-(3-methyl-but-2-enyl)-amine] | – | – | 80% | IC50 [1]: 720 nM
4 | CC(C)=CCN(c1ccc(OCc2ccccc2)cc1)C1CCN(CCC(C)C)CC1 [Example 1, (4-Benzyloxy-phenyl)-(3-methyl-but-2-enyl)-[1-(3-methyl-butyl)-piperidin-4-yl]-amine] | 40% | 79% | – | responders at 30 mg/kg (DBA/2 mice; 30 mg/kg): 100%
5 | CC(C)=CCN(c1ccc(OCc2ccccc2)cc1)C1CCN(CCC(C)(C)C)CC1 [Example 2, (4-Benzyloxy-phenyl)-[1-(3,3-dimethyl-butyl)-piperidin-4-yl]-(3-methyl-but-2-enyl)-amine] | 62% | 93% | 80% | –
6 | CC(C)=CCN(c1ccc(OCc2ccccc2)cc1)C1CCN(Cc2ccc(N(C)C)cc2)CC1 [Example 6, (4-Benzyloxy-phenyl)-[1-(4-dimethylamino-benzyl)-piperidin-4-yl]-(3-methyl-but-2-enyl)-amine] | – | – | 100% | responders at 30 mg/kg (DBA/2 mice; 30 mg/kg): 100%
7 | CC(C)=CCN(c1ccc(OCc2ccccc2)cc1)C1CCN(CCC(C)O)CC1 (centres unmarked) [Example 20, 4-{4-[(4-Benzyloxy-phenyl)-(3-methyl-but-2-enyl)-aminol]-piperidin-1-yl}-butan-2-ol] | – | – | 40% | IC50 [1]: 3000 nM
8 | SNX-111: selective N-type calcium channel blocker (CKGKGAKCSRLMYDCCTGSCRSGKC-NH2; disulfide 1-16, 15-25, 8-20; UniProt P05484 46-70, looked up) | – | – | – | activity in models of ischemia and pain [2]: demonstrated activity in a number of models of ischemia and pain; N-type calcium channel blockade selectivity (N-type calcium channel): selective N-type calcium channel blocker
9 | CC(C)=CCN(c1ccc(C(C)C)cc1)C1CCN(Cc2c[nH]cn2)CC1 [Example 31, [1-(1H-Imidazol-4-ylmethyl)-piperidin-4-yl]-(4-isopropyl-phenyl)-(3-methyl-but-2-enyl)-amine] | 7% | 62% | – | –
10 | CC(C)=CCN(c1ccc(OCc2ccccc2)cc1)C1CCN(Cc2ccc(O)cc2)CC1 [Example 5, 4-{4-[(4-Benzyloxy-phenyl)-(3-methyl-but-2-enyl)-amino]-piperidin-1-ylmethyl}-phenol] | 47% | 100% | 80% | –
11 | CC(C)=CCN(c1ccc(OCc2ccccc2)cc1)C1CCN(Cc2c[nH]cn2)CC1 [Example 8, (4-Benzyloxy-phenyl)-[1(1H-imidazol-4-ylmethyl)-piperidin-4-yl]-(3-methyl-but-2-enyl)-amine] | 16% | 71% | 60% | –
12 | CC(C)=CCN(c1ccc(OCc2ccccc2)cc1)C1CCCN(Cc2ccccc2)C1 (centres unmarked) [Example 49, (4-Benzyloxy-phenyl)-(1-benzyl-piperidin-3-yl)-(3-methyl-but-2-enyl)-amine] | – | – | – | IC50 [1]: 1200 nM
13 | CC(C)=CCN(c1ccc(OCc2ccccc2)cc1)C1CCN(C(=O)C2CC(C)CCN2CCC(C)C)CC1 (centres unmarked) [Example 17, {4-[(4-Benzyloxy-phenyl)-(3-methyl-but-2-enyl)-amino]-piperidin-1-yl}-[4-methyl-1-(3-methyl-butyl)-piperidin-2-yl]-methanone] | 86% | 76% | – | –
14 | CC(C)=CCN(c1ccc(OCc2ccccc2)cc1)C1CCN(C(=O)C2CCN(CCC(C)C)CC2)CC1 [Example 13, {4-[(4-Benzyloxy-phenyl)-(3-methyl-but-2-enyl)-amino]-piperidin-1-yl}-[1-(3-methyl-butyl)-piperidin-4-yl]-methanone] | 37% | 75% | – | –
15 | CC(C)=CCN(c1ccc(OCc2ccccc2)cc1)C1CCN(C(=O)C2CN(C(C)C)CCN2CCC(C)C)CC1 (centres unmarked) [Example 15, {4-[(4-Benzyloxy-phenyl)-(3-methyl-but-2-enyl)-amino]-piperidin-1-yl}-[4-isopropyl-1-(3-methyl-butyl)-piperazin-2-yl]-methanone] | 51% | 92% | 20% | responders at 30 mg/kg (DBA/2 mice; 0.75 h, 30 mg/kg (45 min)): 100%
